This is an account of results in ChEMBL document CHEMBL4043230, “Synthesis and biological evaluation of peptide-derived TSLP inhibitors” (Bioorg Med Chem Lett, 2017).

Where a SMILES comes first, the peptide text is derived from it.

Assay [1] deals with Thymic stromal lymphopoietin (Homo sapiens) (UniProt Q969D9). Description: Inhibition of human N-terminal flag-tagged TSLP/human C-terminal octa histidine-tagged TSLPR interaction at 0.3 mM after 16 hrs by ELISA based spectrophotometric analysis. A general note: An ELISA detects its analyte on a solid surface through an enzyme-linked reagent.
Assay [2] has the same target. Description: Inhibition of human N-terminal flag-tagged TSLP/human C-terminal octa histidine-tagged TSLPR interaction at 0.1 mM after 16 hrs by ELISA based spectrophotometric analysis.
The target is the same in assay [3]. Kind of assay: Inhibition of human N-terminal flag-tagged TSLP/human C-terminal octa histidine-tagged TSLPR interaction at 1 mM after 16 hrs by ELISA based spectrophotometric analysis relative to control.

Thymic stromal lymphopoietin (Homo sapiens), sequence (Q969D9 whole entry): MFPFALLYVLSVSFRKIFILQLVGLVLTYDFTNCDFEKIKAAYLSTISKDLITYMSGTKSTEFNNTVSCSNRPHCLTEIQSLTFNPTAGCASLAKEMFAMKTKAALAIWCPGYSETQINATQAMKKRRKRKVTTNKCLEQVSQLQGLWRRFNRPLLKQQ

As to `CC(=O)N[C@@H](C)C(=O)N[C@@H](C)C(=O)N[C@@H](Cc1cnc[nH]1)C(=O)N[C@@H](Cc1ccc(O)cc1)C(=O)NCC(=O)N[C@@H](CC(C)C)C(=O)N[C@@H](CCC(=O)O)C(=O)O` (Ac-AAHYGLE-OH), the inhibition amounted to 11% in assay [1], 4% in assay [2] and 37% in assay [3].
For `CC(=O)N[C@@H](C)C(=O)N[C@@H](C)C(=O)N[C@@H](Cc1cnc[nH]1)C(=O)N[C@@H](Cc1ccc(O)cc1)C(=O)NCC(=O)N[C@@H](CC(C)C)C(=O)N[C@@H](CCC(=O)O)C(=O)N[C@@H](C)C(=O)O` (Ac-AAHYGLEA-OH), the inhibition in assay [1] turned out to be 4%; in assay [2] it was 2%; in assay [3], 26%.
In the same order, the values of `CC(=O)N[C@@H](C)C(=O)N[C@@H](CCCNC(=N)N)C(=O)N[C@@H](CCC(N)=O)C(=O)N[C@@H](CCCNC(=N)N)C(=O)N[C@@H](C)C(=O)N[C@@H](CO)C(=O)N[C@@H](C)C(=O)O` (Ac-ARQRASA-OH) are 30%, 30% and 26%.
On the same counts, the results for `CC(=O)N[C@@H](C)C(=O)N[C@@H](CCCNC(=N)N)C(=O)N[C@@H](CCC(N)=O)C(=O)N[C@@H](CCCNC(=N)N)C(=O)N[C@@H](C)C(=O)N[C@@H](CO)C(=O)N[C@@H](C)C(=O)N[C@@H](Cc1c[nH]c2ccccc12)C(=O)O` (Ac-ARQRASAW-OH) are 56%, 50% and 65%.
Regarding `CC(=O)N[C@@H](CCCNC(=N)N)C(=O)N[C@@H](C)C(=O)N[C@@H](C)C(=O)N[C@@H](Cc1cnc[nH]1)C(=O)N[C@@H](Cc1ccc(O)cc1)C(=O)NCC(=O)N[C@@H](CC(C)C)C(=O)N[C@@H](CCC(=O)O)C(=O)O` (Ac-RAAHYGLE-OH), the inhibition in assay [1] stood at 15%; in assay [2], 5%; in assay [3] it was 52%.
In the same order, the values of `CC(=O)N[C@@H](CCCNC(=N)N)C(=O)N[C@@H](C)C(=O)N[C@@H](C)C(=O)N[C@@H](Cc1cnc[nH]1)C(=O)N[C@@H](Cc1ccc(O)cc1)C(=O)NCC(=O)N[C@@H](CC(C)C)C(=O)N[C@@H](CCC(=O)O)C(=O)N[C@@H](C)C(=O)O` (Ac-RAAHYGLEA-OH) are 11%, 12% and 34%.
On the same counts, the results for `CC(=O)N[C@@H](CCCNC(=N)N)C(=O)N[C@@H](CCC(N)=O)C(=O)N[C@@H](CCCNC(=N)N)C(=O)N[C@@H](C)C(=O)N[C@@H](CO)C(=O)N[C@@H](C)C(=O)O` (Ac-RQRASA-OH) are 22%, 22% and 18%.
Take `CC(=O)N[C@@H](CCCNC(=N)N)C(=O)N[C@@H](CCC(N)=O)C(=O)N[C@@H](CCCNC(=N)N)C(=O)N[C@@H](C)C(=O)N[C@@H](CO)C(=O)N[C@@H](C)C(=O)N[C@@H](Cc1c[nH]c2ccccc12)C(=O)O` (Ac-RQRASAW-OH): the results for the inhibition in assay [1], in assay [2] and in assay [3] were 44%, 38% and 56%, respectively.
On the same counts, the results for `CC(C)C[C@H](NC(=O)CNC(=O)[C@H](Cc1ccc(O)cc1)NC(=O)[C@H](Cc1cnc[nH]1)NC(=O)[C@H](C)NC(=O)[C@H](C)N)C(=O)N[C@@H](CCC(=O)O)C(=O)O` (H-AAHYGLE-OH) are 3%, 2% and 16%.
On the same counts, the results for `CC(C)C[C@H](NC(=O)CNC(=O)[C@H](Cc1ccc(O)cc1)NC(=O)[C@H](Cc1cnc[nH]1)NC(=O)[C@H](C)NC(=O)[C@H](C)N)C(=O)N[C@@H](CCC(=O)O)C(=O)N[C@@H](C)C(=O)O` (H-AAHYGLEA-OH) are 23%, 5% and 59%.
As for `C[C@H](N)C(=O)N[C@@H](CCCNC(=N)N)C(=O)N[C@@H](CCC(N)=O)C(=O)N[C@@H](CCCNC(=N)N)C(=O)N[C@@H](C)C(=O)N[C@@H](CO)C(=O)N[C@@H](C)C(=O)O` (H-ARQRASA-OH), the inhibition turned out to be 32% in assay [1], 30% in assay [2] and 30% in assay [3].
With `C[C@H](N)C(=O)N[C@@H](CCCNC(=N)N)C(=O)N[C@@H](CCC(N)=O)C(=O)N[C@@H](CCCNC(=N)N)C(=O)N[C@@H](C)C(=O)N[C@@H](CO)C(=O)N[C@@H](C)C(=O)N[C@@H](Cc1c[nH]c2ccccc12)C(=O)O` (H-ARQRASAW-OH), the inhibition was 49% in assay [1], 42% in assay [2] and 60% in assay [3].
Turning to `CC(C)C[C@H](NC(=O)CNC(=O)[C@H](Cc1ccc(O)cc1)NC(=O)[C@H](Cc1cnc[nH]1)NC(=O)[C@H](C)NC(=O)[C@H](C)NC(=O)[C@@H](N)CCCNC(=N)N)C(=O)N[C@@H](CCC(=O)O)C(=O)O` (H-RAAHYGLE-OH), the inhibition in assay [1] stood at 10%; in assay [2], 4%; in assay [3] it was 45%.
`CC(C)C[C@H](NC(=O)CNC(=O)[C@H](Cc1ccc(O)cc1)NC(=O)[C@H](Cc1cnc[nH]1)NC(=O)[C@H](C)NC(=O)[C@H](C)NC(=O)[C@@H](N)CCCNC(=N)N)C(=O)N[C@@H](CCC(=O)O)C(=O)N[C@@H](C)C(=O)O` (H-RAAHYGLEA-OH): the inhibition in assay [1] was 17%; in assay [2], 7%; in assay [3], 35%.
On the same counts, the results for `C[C@H](NC(=O)[C@H](CO)NC(=O)[C@H](C)NC(=O)[C@H](CCCNC(=N)N)NC(=O)[C@H](CCC(N)=O)NC(=O)[C@@H](N)CCCNC(=N)N)C(=O)O` (H-RQRASA-OH) are 15%, 19% and 18%.
Take `C[C@H](NC(=O)[C@H](CO)NC(=O)[C@H](C)NC(=O)[C@H](CCCNC(=N)N)NC(=O)[C@H](CCC(N)=O)NC(=O)[C@@H](N)CCCNC(=N)N)C(=O)N[C@@H](Cc1c[nH]c2ccccc12)C(=O)O` (H-RQRASAW-OH): the inhibition in assay [1] amounted to 47%; in assay [2], 38%; in assay [3], 46%.

By inhibition is commonly meant the share of the control response that was lost under treatment. Low readings indicate little suppression, high ones strong suppression.
